The values that follow come from patent publication USRE38984E1, “Antifungal combination therapy” (Merck & Co., Inc., priority 1996, dated 2006).

Data set [1] can be described thus: drug interaction and efficacy studies against disseminated candidiasis, aspergillosis and cryptococcosis (overall findings). The class given is in vivo. The procedure:
(§1) Drug interaction and efficacy studies with Compound I combined with either AmB or FCZ against disseminated candidiasis, aspergillosis and cryptococcosis were performed.

Data set [2] relates to C. albicans. Description: drug interaction and efficacy study against disseminated candidiasis. The class given is in vivo. The settings on record: Compound I 0.03 mg/kg and lower plus AmB 0.03 mg/kg and lower. The method, then: as §1
In data set [3] the test system is C. neoformans. Nature of the data set: drug interaction and efficacy study against cryptococcosis in mice. The class given is in vivo. The procedure:
as §1

The test system of data set [4] is C. albicans. Description: broth microdilution antifungal susceptibility / drug combination testing in vitro (NCCLS M27-T). The class given is cell-based. An excerpt: (§2) This has been shown using a broth microdilution technique which is the standard method for antifungal susceptibility testing proposed by the NCCLS (protocol M27-T). Sub-inhibitory concentrations of Compound I in combination with sub-inhibitory concentrations of AmB and sub-inhibitory concentrations of FCZ were employed. The minimal inhibitory concentrations (MICS) for AmB and Compound I were defined as the lowest drug concentration at which there was an absence of growth.
(§3) Additional drug combination testing in vitro was performed to evaluate combinations of Compound I with AmB and FCZ against clinical isolates. There was no antagonism evident between Compound I and AmB against C. albicans, A. fumigatus and C. neoformans. Fractional inhibitory indices (FIC) were approximately 0.50 or lower, indicative of additive or synergistic activity.

For data set [5], the system named is A. fumigatus. Described as above. The class given is cell-based.
From the text: as §2, §3

For data set [6], the system named is C. neoformans. The description is as above. Type of data set: cell-based.
From the text: as §2, §3

Data set [7] has as its system A. fumigatus. Nature of the data set: drug interaction and efficacy study against disseminated aspergillosis. Type of data set: in vivo. The settings on record: Compound I 0.008 mg/kg combined with AmB 0.12 mg/kg, over the compounds administered alone. The method, then: as §1
Where [8] appears, read: Compound I with AmB, sub-inhibitory concentrations.
[9] abbreviates: in vitro drug combination, clinical isolates, indicative of additive or synergistic activity.

Molecules are shown by their SMILES. Where only a bound is given, the exact number is not on record here.

`CCC(C)CC(C)CCCCCCCCC(=O)N[C@H]1C[C@@H](O)[C@@H](NCCN)NC(=O)[C@@H]2[C@@H](O)CCN2C(=O)[C@H]([C@H](O)CCN)NC(=O)[C@H]([C@H](O)[C@@H](O)c2ccc(O)cc2)NC(=O)[C@@H]2C[C@@H](O)CN2C(=O)[C@H]([C@@H](C)O)NC1=O` (stereo partly drawn) [Compound I]: the “FIC values in vivo” value in data set [1] (Compound I and AmB, suggesting additive or synergistic activity in vivo) is given as “approximately 0.50”. The “adverse effects with combinations” value in data set [1] (Compound I combined with either AmB or FCZ, at high, use or lower concentrations) was “no adverse effects”. For the same compound, the antagonism of efficacy result is “no antagonism of efficacy” in data set [1] (either AmB or FCZ combined with Compound I) and “no antagonism of efficacy” in the data set with C. neoformans [3] (FCZ in combination with Compound I, cryptococcosis in mice). Further, the “efficacy of combination versus single agents” value with C. albicans [2] is “more efficacious than either agent administered alone”. The effects on efficacy result in the data set with C. neoformans [3] (combinations of Compound I and FCZ at certain concentrations) is on record as “Beneficial effects on efficacy”. The “activity of combination therapy in vitro” value was “enhanced activity” in the data set on C. albicans [4] (setting [8]); “enhanced activity” with A. fumigatus [5] (setting [8]); “enhanced activity” in the data set on C. neoformans [6] (Compound I with AmB and FCZ, sub-inhibitory concentrations, strains of C. neoformans). The “Fractional inhibitory indices (FIC)” value with C. albicans [4] (setting [9]), in the data set with A. fumigatus [5] (setting [9]) and with C. neoformans [6] (setting [9]) was not above 0.50 in each case. The “antagonism between Compound I and AmB” value in the data set on C. albicans [4] (in vitro, clinical isolates) was “no antagonism”; with A. fumigatus [5] (in vitro, clinical isolates), “no antagonism”; in the data set with C. neoformans [6] (in vitro, clinical isolates), “no antagonism”. Further, the “effect on activity of fluconazole (CFU numbers)” value with C. neoformans [6] (Compound I combined with fluconazole 0.25, 0.50 and 1.0 μg/ml) is “significantly enhanced the activity of fluconazole”. The “colony forming units (CFUs)” value with C. neoformans [6] (amphotericin B 0.0075, 0.015 and 0.03 μg/ml combined with Compound I 4, 8 and 16 μg/ml) is “markedly reduced”. In the data set with A. fumigatus [7], the survival result was “Significant improvement in survival”.
